Data reported in the NIST ThermoML archive (doi:10.1016/j.fluid.2014.07.002).

Assay: mean ionic activity coefficient (dimensionless); mn = molality of the nth substance listed, in mol/kg
Details: 298.2 K, 101 kPa, Liquid, potentionmetric method

[Cl-].[Na+] [sodium chloride] + O
Details	mean ionic activity coefficient
m1 = 0.001	0.965
m1 = 0.0101	0.902
m1 = 0.0502	0.82
m1 = 0.0993	0.777
m1 = 0.2495	0.718
m1 = 0.4993	0.68
m1 = 0.7496	0.663
m1 = 0.9996	0.655
m1 = 1.249	0.654
m1 = 1.5	0.656
m1 = 1.749	0.66
m1 = 1.999	0.667
m1 = 2.499	0.687
m1 = 3	0.713
